The assay concerns the target Metabotropic glutamate receptor 8 (Rattus norvegicus, UniProt P70579).

The text below walks through data of BindingDB's records for doi:10.1016/s0028-3908(00)00128-3 (University of Toronto, 2001).

SMILES strings stand for the structures.

Chain of Metabotropic glutamate receptor 8 (P70579 whole entry): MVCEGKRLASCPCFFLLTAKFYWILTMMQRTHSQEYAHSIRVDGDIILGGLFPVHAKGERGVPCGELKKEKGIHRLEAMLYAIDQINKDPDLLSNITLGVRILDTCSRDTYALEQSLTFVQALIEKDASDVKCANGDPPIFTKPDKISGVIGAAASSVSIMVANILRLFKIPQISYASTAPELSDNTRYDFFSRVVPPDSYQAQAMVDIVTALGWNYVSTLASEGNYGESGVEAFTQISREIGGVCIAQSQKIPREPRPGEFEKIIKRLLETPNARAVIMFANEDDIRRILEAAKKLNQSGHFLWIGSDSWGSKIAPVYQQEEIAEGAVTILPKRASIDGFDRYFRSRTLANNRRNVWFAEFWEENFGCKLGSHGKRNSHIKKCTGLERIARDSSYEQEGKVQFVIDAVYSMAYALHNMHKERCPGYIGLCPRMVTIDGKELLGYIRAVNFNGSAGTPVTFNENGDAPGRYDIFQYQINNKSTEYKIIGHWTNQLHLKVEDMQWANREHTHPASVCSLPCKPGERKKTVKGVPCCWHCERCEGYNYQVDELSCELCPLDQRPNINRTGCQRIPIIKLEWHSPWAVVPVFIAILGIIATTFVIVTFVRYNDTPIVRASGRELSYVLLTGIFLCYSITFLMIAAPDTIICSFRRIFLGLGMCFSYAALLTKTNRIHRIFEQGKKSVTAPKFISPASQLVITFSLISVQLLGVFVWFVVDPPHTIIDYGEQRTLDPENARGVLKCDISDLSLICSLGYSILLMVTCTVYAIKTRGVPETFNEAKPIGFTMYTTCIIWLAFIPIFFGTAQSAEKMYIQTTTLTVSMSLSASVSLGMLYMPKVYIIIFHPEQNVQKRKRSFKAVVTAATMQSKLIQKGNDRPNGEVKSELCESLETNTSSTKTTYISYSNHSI

The molecule `CC(N)(C(=O)O)c1ccc(P(=O)(O)O)cc1` (configuration not stated) had a Ki of 0.48 µM.
To `N[C@@H](CCP(=O)(O)O)C(=O)O` [2-Amino-4-phosphono-butyric acid] belongs 2.7 µM.
To `NC(C(=O)O)c1ccc(P(=O)(O)O)cc1` (configuration not stated) [Amino-(4-phosphono-phenyl)-acetic acid(RS-PPG)] belongs 1.3 µM; to `NC(CCC(=O)O)C(=O)O` (configuration not stated) [glutamic acid dianion], above 10 µM; to `C[C@@](N)(C(=O)O)c1ccc(C(=O)O)cc1` (racemic), above 10 µM.
To `N[C@H](CCP(=O)(O)O)C(=O)O` [D-AP4] belongs above 10 µM.
In the case of `N[C@@H](COP(=O)(O)O)C(=O)O`, the Ki was 1.2 µM.

By Ki is commonly meant a measure of affinity in units of concentration, obtained from inhibition or displacement. The low end stands for a stronger hold on the target, the high end for a looser hold on the target.
